Results from PubChem BioAssay AID1963447 (Molecular Pharmacology Branch, DTP, NCI, 2024).
Values joined by “and” are separate entries in the source; they are usually repeats but may differ in a detail not shown here. Equal entries are not always repeated.

Test system: 885512-296-R-J2-PDC complex spheroid growth, % test/control
Test: Anticancer human tumor 885512-296-R-J2-PDC patient-derived breast carcinoma cell line growth inhibition [Asc]
Details: for viability, T/C: stronger effect = lower value
Method in brief: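 Stromal components (HUVEC and hMSC) are co-assembled with the cancer cells into multicellular spheroids. Drugs are then added singly or paired, at concentrations falling by half-log increments from a clinically achievable maximum, capped at 10 microM without known Cmax.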
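Note: spheroids exposed to compounds for seven days.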
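Throughout, for viability, T/C: 100% = DMSO vehicle control wells.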

SMILES: C=CC(=O)N1CCN(c2nc(=O)n(-c3c(C)ccnc3C(C)C)c3nc(-c4c(O)cccc4F)c(F)cc23)C(C)C1 (centres undefined)
- viability, T/C (compound 0.0316 µM): 90.3% and 85.9% and 94.9%
- viability, T/C (compound 0.1 µM): 104% and 108% and 86.1%
- viability, T/C (compound 0.316 µM): 108% and 104% and 90.2%
- viability, T/C (compound 1 µM): 108% and 124% and 103%
- viability, T/C (compound 3.16 µM): 77.3% and 101% and 95.2%
- viability, T/C (compound 10 µM): 60.6% and 59.6% and 78.4%
- IC50 (curve of compound): > 10000 nM

SMILES: O=C(c1ccc(F)c(F)c1Nc1ccc(I)cc1F)N1CC(O)([C@@H]2CCCCN2)C1
- viability, T/C (compound 0.00316 µM): 94% and 88.7% and 94.3%
- viability, T/C (compound 0.01 µM): 89.3% and 77.1% and 88.9%
- viability, T/C (compound 0.0316 µM): 73.9% and 62.5% and 68.7%
- viability, T/C (compound 0.1 µM): 69.7% and 54.8% and 47.7%
- viability, T/C (compound 0.316 µM): 45.6% and 36.5% and 35.7%
- viability, T/C (compound 1 µM): 18.4% and 15.1% and 17.1%
- IC50 (curve of compound): 255 nM and 113 nM and 102 nM

SMILES: C=CC(=O)N1CCN(c2nc(=O)n(-c3c(C)ccnc3C(C)C)c3nc(-c4c(O)cccc4F)c(F)cc23)C(C)C1 (centres undefined) + CCN1C(C(=O)NC23CCC(C(=O)O)(CC2)CC3)C(c2cccc(Cl)c2F)C2(C(=O)Nc3cc(Cl)ccc32)C12CCCCC2
- IC50 (curve of first compound, second compound 0.03 µM): > 10000 nM
- IC50 (curve of first compound, second compound 0.0949 µM): > 10000 nM
- IC50 (curve of first compound, second compound 0.3 µM): > 10000 nM
- IC50 (curve of first compound, second compound 0.949 µM): > 10000 nM
- IC50 (curve of first compound, second compound 3 µM): < 31.6 nM
- viability, T/C (second compound 0.03 µM, first compound 0.0316 µM): 93.7%
- viability, T/C (second compound 0.03 µM, first compound 0.1 µM): 96.8%
- viability, T/C (second compound 0.03 µM, first compound 0.316 µM): 111%
- viability, T/C (second compound 0.03 µM, first compound 1 µM): 112%
- viability, T/C (second compound 0.03 µM, first compound 3.16 µM): 101%
- viability, T/C (second compound 0.03 µM, first compound 10 µM): 61.3%
- viability, T/C (second compound 0.0949 µM, first compound 0.0316 µM): 73.5%
- viability, T/C (second compound 0.0949 µM, first compound 0.1 µM): 108%
- viability, T/C (second compound 0.0949 µM, first compound 0.316 µM): 114%
- viability, T/C (second compound 0.0949 µM, first compound 1 µM): 108%
- viability, T/C (second compound 0.0949 µM, first compound 3.16 µM): 96.3%
- viability, T/C (second compound 0.0949 µM, first compound 10 µM): 64%
- viability, T/C (second compound 0.3 µM, first compound 0.0316 µM): 89.8%
- viability, T/C (second compound 0.3 µM, first compound 0.1 µM): 88.3%
- viability, T/C (second compound 0.3 µM, first compound 0.316 µM): 117%
- viability, T/C (second compound 0.3 µM, first compound 1 µM): 95.3%
- viability, T/C (second compound 0.3 µM, first compound 3.16 µM): 101%
- viability, T/C (second compound 0.3 µM, first compound 10 µM): 72%
- viability, T/C (second compound 0.949 µM, first compound 0.0316 µM): 68.7%
- viability, T/C (second compound 0.949 µM, first compound 0.1 µM): 71.2%
- viability, T/C (second compound 0.949 µM, first compound 0.316 µM): 70%
- viability, T/C (second compound 0.949 µM, first compound 1 µM): 86.9%
- viability, T/C (second compound 0.949 µM, first compound 3.16 µM): 91.8%
- viability, T/C (second compound 0.949 µM, first compound 10 µM): 61%
- viability, T/C (second compound 3 µM, first compound 0.0316 µM): 38.8%
- viability, T/C (second compound 3 µM, first compound 0.1 µM): 52.6%
- viability, T/C (second compound 3 µM, first compound 0.316 µM): 46.4%
- viability, T/C (second compound 3 µM, first compound 1 µM): 61.1%
- viability, T/C (second compound 3 µM, first compound 3.16 µM): 58.5%
- viability, T/C (second compound 3 µM, first compound 10 µM): 52.2%
